Molecular target: T1, SOD1^H46R (Homo sapiens, UniProt P00441, H47R)
T1 construct: made in house; host or cells: EGy118ΔSOD1 yeast, YEp351 expression vector
Assay: Differential scanning fluorimetry (DSF), thermal stability
Format: binding
Description: To understand how cross-linking effects SOD1 stability, we quantified changes in unfolding temperature (ΔTu, hereafter thermal stability).
The effect of cross-link formation on the thermal stability of SOD1 was determined by differential scanning fluorimetry as previously described. […] After incubation, SYPRO Orange (Invitrogen Corporation, Carlsbad, California, USA), an environmentally sensitive fluorescent dye which is quenched in an aqueous environment but becomes unquenched once it binds hydrophobic residues, was added to the reaction mixture to a final concentration of 200×. The samples were then transferred to a fast optical 96-well reaction plate (Applied Biosystem, Life Technologies Corporation, Carlsbad, California, USA) and loaded on to the real-time PCR machine (Applied Biosystem, Life Technologies Corporation, Carlsbad, California, USA) after plate was spun down to eliminate bubbles. The Melt curve template in StepOne Plus software was used to set up a method. […] The final concentration of DMSO in the reaction mixture was checked as it contributes to the denaturation of proteins. Dilutions were performed accordingly to maintain the final concentration of DMSO less than 1% (vol/vol). All samples were run in technical triplicates. The background data was subtracted from the average relative fluorescence and average derivate for each temperature point, and the data were normalized before Tus were quantified by averaging the negative first derivative of relative fluorescence of all 3 runs and identifying the local minima.

T1 sequence (P00441 2-154 H47R limits assumed): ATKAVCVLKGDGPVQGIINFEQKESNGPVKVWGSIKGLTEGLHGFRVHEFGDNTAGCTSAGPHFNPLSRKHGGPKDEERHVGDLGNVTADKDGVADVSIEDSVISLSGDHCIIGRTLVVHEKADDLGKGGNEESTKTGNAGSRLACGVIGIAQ

[O-][S+]1CCCCS1 (stereo not shown) [S-XL6, 1,2-dithiane-1-oxide]
unfolding temperature (Tu) of S-XL6 cross-linked protein (10-fold molar excess S-XL6, 4 h 37°C, untreated 46.3°C): 69.3 °C
Normalized ROX (SOD1 H46R Protein+S-XL6, Avg. Temp 88.537): 0.19
Normalized ROX (SOD1 H46R Protein+S-XL6, Avg. Temp 88.845): 0.18
Normalized ROX (SOD1 H46R Protein+S-XL6, Avg. Temp 89.124): 0.17
Normalized ROX (SOD1 H46R Protein+S-XL6, Avg. Temp 89.441): 0.16
Normalized ROX (SOD1 H46R Protein+S-XL6, Avg. Temp 89.738): 0.15
Normalized ROX (SOD1 H46R Protein+S-XL6, Avg. Temp 90.026): 0.15
Normalized ROX (SOD1 H46R Protein+S-XL6, Avg. Temp 90.347): 0.14
Normalized ROX (SOD1 H46R Protein+S-XL6, Avg. Temp 90.631): 0.13
Normalized ROX (SOD1 H46R Protein+S-XL6, Avg. Temp 90.929): 0.12
Normalized ROX (SOD1 H46R Protein+S-XL6, Avg. Temp 91.236): 0.12
Normalized ROX (SOD1 H46R Protein+S-XL6, Avg. Temp 91.540): 0.11
Normalized ROX (SOD1 H46R Protein+S-XL6, Avg. Temp 91.847): 0.10
Normalized ROX (SOD1 H46R Protein+S-XL6, Avg. Temp 92.140): 0.10
Normalized ROX (SOD1 H46R Protein+S-XL6, Avg. Temp 92.454): 0.09
Normalized ROX (SOD1 H46R Protein+S-XL6, Avg. Temp 92.741): 0.08
Normalized ROX (SOD1 H46R Protein+S-XL6, Avg. Temp 93.029): 0.08
Normalized ROX (SOD1 H46R Protein+S-XL6, Avg. Temp 93.345): 0.07
Normalized ROX (SOD1 H46R Protein+S-XL6, Avg. Temp 93.646): 0.07
Normalized ROX (SOD1 H46R Protein+S-XL6, Avg. Temp 93.947): 0.06
Normalized ROX (SOD1 H46R Protein+S-XL6, Avg. Temp 94.241): 0.06
Normalized ROX (SOD1 H46R Protein+S-XL6, Avg. Temp 94.530): 0.0527
Normalized ROX (SOD1 H46R Protein+S-XL6, Avg. Temp 94.809): 0.05
Normalized ROX (SOD1 H46R Protein+S-XL6, Avg. Temp 95.129): 0.0441
Normalized ROX (SOD1 H46R Protein+S-XL6, Avg. Temp 95.418): 0.04
Normalized ROX (SOD1 H46R Protein+S-XL6, Avg. Temp 95.750): 0.0365
Normalized ROX (SOD1 H46R Protein+S-XL6, Avg. Temp 96.054): 0.032
Normalized ROX (SOD1 H46R Protein+S-XL6, Avg. Temp 96.342): 0.03
Normalized ROX (SOD1 H46R Protein+S-XL6, Avg. Temp 96.634): 0.0257
Normalized ROX (SOD1 H46R Protein+S-XL6, Avg. Temp 96.939): 0.0228
Normalized ROX (SOD1 H46R Protein+S-XL6, Avg. Temp 97.230): 0.02
Normalized ROX (SOD1 H46R Protein+S-XL6, Avg. Temp 97.449): 0.017
Normalized ROX (SOD1 H46R Protein+S-XL6, Avg. Temp 97.842): 0.0143
Normalized ROX (SOD1 H46R Protein+S-XL6, Avg. Temp 98.133): 0.0127
Normalized ROX (SOD1 H46R Protein+S-XL6, Avg. Temp 98.436): 0.01
Normalized ROX (SOD1 H46R Protein+S-XL6, Avg. Temp 98.745): 0.00697
Normalized ROX (SOD1 H46R Protein+S-XL6, Avg. Temp 99.031): 0.00571
Normalized ROX (SOD1 H46R Protein+S-XL6, Avg. Temp 99.342): 0.0034
Normalized ROX (SOD1 H46R Protein+S-XL6, Avg. Temp 99.632): 0.00127
Normalized ROX (SOD1 H46R Protein+S-XL6, Avg. Temp 99.860): 0.00

Reference: publication PMC10826971, “Evaluating protein cross-linking as a therapeutic strategy to stabilize SOD1 variants in a mouse model of familial ALS” (PLOS Biology, 2024)
